Assay results: patent publication US20100222548A1, “METHOD FOR PRODUCING CONDENSATION PRODUCTS FROM N-SUBSTITUTED GLYCINE DERIVATIVES(PEPTOIDS) BY SEQUENTIAL UGI-MULTICOMPONENT REACTIONS” (priority 2006, published 2010)
Where a SMILES comes first, the peptide text is derived from it. [ ]: non-standard residue; d: D form. Gly(Nα-4-Cl-benzyl) = O=C(O)CNCc1ccc(Cl)cc1; Gly(N-(CH2)3OMe) = COCCCNCC(=O)O; N(iPr)Gly = CC(C)NCC(=O)O

Test system: Vibrio fischeri

COCCCN(CC(=O)NCC(=O)O)C(=O)CNC(=O)CN(C(=O)CNC(=O)CN(Cc1ccc(Cl)cc1)C(=O)CN)C(C)C (H-G[Gly(Nα-4-Cl-benzyl)]G[N(iPr)Gly]G[Gly(N-(CH2)3OMe)]G-OH)
IC50: ~10 µM
